Measurements taken from PMC5491917, “In vitro and in vivo anticancer studies of 2'-hydroxy chalcone derivatives exhibit apoptosis in colon cancer cells by HDAC inhibition and cell cycle arrest” (EXCLI Journal, 2017).
Where two headings read alike, the source gives them in different places.

Key:
[1] = tested on: HCT116 cells; experiment: Acridine orange/Ethidium bromide (AO/EB) staining; type: cell-based, human; conditions: HCT116, 48 h, mean ± SEM of 100 cells
Procedure: AO/EB dual staining was performed in order to determine the apoptosis inducing potential of the selected test compounds in HCT116 cell line with few modifications (Kumar et al., 2016[9]). In brief, 5 × 10^5 cells were seeded in 6 wells plate containing 2 ml of medium and incubated for 24 h. After 24 h, cells were treated with the test compounds and incubated for 48 h. After 48 h of incubation, the wells were washed with phosphate buffer saline (PBS) and cells were fixed with ice cold ethanol (70 %) for 30 min. Ethanol was then removed and cells were washed again with PBS followed by the addition of 200 µl of AO/EB (20/30 µg/ml) stain in each well. The plate was later kept in the dark for 20 min. The excess stain was further washed thrice with PBS and observed for their fluorescence under a fluorescent microscope (Eclipse TS100-F, Nikon Instruments Inc., Melville, NY, USA).

[2] = tested on: HCT116 cells; experiment: Annexin V assay (Muse Cell Analyzer); type: cell-based, human; conditions: HCT116, 48 h; 5-FU 20 μM, C1 25 μM, C2 70 μM, C3 70 μM
Procedure: Apoptosis determination by Annexin V staining was carried out using Muse Cell Analyzer with the kit provided by the manufacturer Merck Millipore. In brief, 1 × 10^6 cells were seeded in 60 mm tissue culture dish and after overnight adherence test compounds were added and incubated. After 48 h the cells were detached by trypsinization, centrifuged and resuspended. 100 µl of cell suspension was added with 100 µl of Annexin V reagent and incubated for 20 min at room temperature following which the cells were analyzed for apoptosis.

[3] = tested on: DMH induced colorectal carcinoma; experiment: DMH (1,2-dimethyl hydrazine) induced colon cancer in Wistar rats; type: in vivo; conditions: test compounds 100 mg/kg p.o., 5-FU 10 mg/kg i.p., 21 days; for TNF-α level in colon homogenate: ELISA, DMH control 20.2 ± 0.8, normal control 0.8 ± 0.1; for No. of ACF/5 cm^2: colon tissue, DMH control 81.6 ± 1.4; for No. of ACF/5 cm^2 / No. of adenocarcinoma: mean ± SEM, n=6; for No. of adenocarcinoma: entire colon, DMH control 15 ± 1.2
Procedure: Test compound: Three test compounds, namely C1, C2 & C3 were suspended in 0.25 % sodium carboxy methyl cellulose (CMC) and were administered orally (p.o) with a dosing volume of 10 ml/kg.
Standard drug: 5-Fluorouracil (5-FU) was used as standard. It was procured in the form of injection and administered intraperitoneally (i.p) with a dosing volume of 10 ml/kg.
Induction of colon cancer was achieved using DMH according to a previously described procedure with few modifications (Perše and Cerar, 2005[15]). DMH at a dose of 30 mg/kg was administered i.p once a week for 20 weeks. The incidence of aberrant crypt foci (ACFs) and adenocarcinoma were confirmed by sacrificing a few of the animals after 20 weeks confirming the induction of colon cancer in experimental animals. Finally, the animals were randomized into five experimental groups based on their body weight.
Group 1 (normal control): Animals (n=6) were administered 0.25 % CMC in water p.o.
Group 2 (DMH control): Animals (n=6) were administered DMH
Group 3 (standard drug): Animals (n=6) received 5-FU 10 mg/kg i.p. for 21 days of study period
Group 4 (C1): Animals (n=6) received C1 at 100 mg/kg p.o for 21 days
Group 5 (C2): Animals (n=6) received C2 at 100 mg/kg p.o. for 21 days.
Group 6 (C3): Animals (n=6) received C3 at 100 mg/kg p.o. for 21 days.
The distal part of the colon, which was removed from the experimental animals after the study period was cut open and placed flat on a filter paper and fixed with 10 % buffered formalin for 12 h. Further, it was stained with 0.1 % methylene blue in PBS for 5 min. Specimens were later observed under microscope for ACF formation and were calculated as the number of counts/5 cm^2 in colon tissue. The entire colon was considered to study the incidence of adenocarcinoma. The growth was critically observed and the count and size were noted from each animal.
The levels of TNF-α were estimated in the colon of experimental animals, for which 10 % homogenate of colon tissue was prepared in tissue lysis buffer. The homogenate was centrifuged and the supernatant was collected to measure TNF-α levels using commercially available ELISA kits of rat TNF-α (# KRC3011, Invitrogen).
Length of the isolated colon was measured in centimeters and weight was measured in g. The colon length/weight (L/W) ratio was then calculated. Isolated spleen, kidney and heart of the experimental animals were also weighed in g and respective index was calculated.
Histopathology was carried out according to the described procedure (Reddy et al., 2015[18]). The stained slides were then analyzed under a microscope for any anatomical changes.
All the values were expressed as mean ± SEM of 6 animals. Data were analyzed using one-way ANOVA followed by Tukey's multiple comparison tests using Prism 5.03 (Graph Pad Software Inc., La Jolla, CA, USA). Values of p < 0.05 were considered to be significant.

[4] = tested on: histone deacetylase (HDAC) enzyme; experiment: Whole cell HDAC enzyme assay; type: cell-based, human; conditions: HCT116 cells
Procedure: HCT116 cells were harvested and seeded in 96 well sterile, black well plates at 2 × 10^4 cells/well and incubated overnight. Further, the cells were treated with different concentration of the test compounds for a period of 18 h. Then, 15 mM Boc-Lys(Ac)-AMC substrate (Sigma Aldrich # SCP0168) was added and incubated for 1 h. The reaction was terminated by the addition of 50 µL of stop solution (trypsin 2 mg/ml, 1 % NP40, […]) in HDAC assay buffer (25 mM Tris-HCl (pH 8.0), 137 mM NaCl, 2.7 mM KCl, 1 mM MgCl2). The reaction was then allowed to proceed for 15 min at 37 °C after which, the fluorescence was measured at 360 nm excitation and 460 nm emission using fluorescence micro plate reader (FLx800, BioTek Instruments Inc., Winooski, VT, USA) (Reddy et al., 2015[18]).

[5] = tested on: HCT116 cells; experiment: Cell cycle analysis (propidium iodide, flow cytometry); type: cell-based, human; conditions: HCT116, 48 h treatment; for Cells in G2/M phase (M3): normal control 18.2 %
Procedure: The ability of the test compounds to arrest any phase of the cell cycle was determined using the described procedure (Reddy et al., 2015[18]). In this method, HCT116 cells were harvested and seeded at a density of 1 × 10^6 cell in 60 mm petri plate and incubated for 24 h. After 24 h cells were treated with test compounds for 48 h. Then the cells were washed with PBS, trypsinized and centrifuged. The cell pellets were later fixed in 70 % ice cold ethanol and stored at -20 °C for 24 h. After fixing, the pellet was dislodged in PBS and stained with propidium iodide solution. The cells were then analyzed using Accuri C6 flow cytometer with the threshold levels adjusted to remove the debris (BD Biosciences, San Jose, CA, USA) and data analysis were performed using BD Accuri™ C6 software.

[6] = tested on: Vero cells; experiment: MTT cytotoxicity assay on Vero; type: cell-based, African green monkey; conditions: Chlorocebus sabaeus, 48 h exposure
Procedure: (§1) Human colorectal carcinoma (HCT116) and African green monkey kidney epithelial cells (VERO) were procured from the National Centre for Cell Science, Pune, MH, India. The cells were maintained in Dulbecco's Modified Eagle's Medium (DMEM) (Sigma-Aldrich Co. LLC, ST. Louis, Mo, USA) supplemented with 10 % Fetal Bovine Serum (FBS) (HiMedia Laboratories, Mumbai, India) and 1 × Penicillin/Streptomycin at 37 °C in CO2 incubator (NU-5501 E/G, NuAire Inc., Plymoth, MN, USA) in humidified atmosphere of 5 % CO2 and 95 % air. The cells were maintained by routine sub-culturing in 25 cm^2 tissue culture flasks.
(§2) Cytotoxic potential of the test compounds were assessed using MTT assay (Kumar et al., 2016[9]). In brief, HCT116 and Vero cells were harvested from confluent flask and seeded (5 × 10^4 cells/well) in 96 well plates. After 24 h of incubation, the cells were exposed to different concentration of the test compounds for 48 h. Further, 50 µl of MTT reagent (HiMedia Laboratories, Mumbai, India) (2 mg/ml in sterile PBS) was added into each well after 48 h and incubated for 3 more h. The formazan crystals formed were solubilized using 100 % DMSO and the optical density was measured at 540 nm using micro plate reader (ELx800, BioTek Instruments Inc., Winooski, VT, USA).

[7] = tested on: HCT116 cells; experiment: MTT cytotoxicity assay on HCT116; type: cell-based; conditions: Homo sapiens
Procedure: as §1, §2

[8] = 18 h treatment, mean ± SEM, triplicate, read-out: IC50 whole cell HDAC enzyme inhibition
[9] = read-out: IC50 inhibition of HDAC (unit inferred)
[10] = HCT-116, 48 h exposure, read-out: IC50 Value HCT116
[11] = HCT-116, 48 h of treatment, read-out: IC50 value on HCT116 cells

IC50 [4, 8] [µM]	Compound	% apoptotic cells (AO/EB staining) [1] [%]	Early Apop. (Annexin V) [2] [%]	Total apoptotic cells (Annexin V) [2]	TNF-α level in colon homogenate [3]	No. of ACF/5 cm^2 [3]	No. of adenocarcinoma [3]	IC50 [4, 9] [µM]	Cells in G2/M phase (M3) [5] [%]	IC50 [6] [µM]	IC50 [7, 10] [µM]	IC50 [7, 11] [µM]	Cells in S phase (M2) ([5]; normal control 9.5 %) [%]	IC50 ([7]; HCT-116, 48 h, 48 h exposure, read-out: IC50 Value HCT116) [µM]
	O=c1[nH]cc(F)c(=O)[nH]1 [5-FU, 5-Fluorouracil, reference compound]	45 ± 0.87	15.86	38.08 % of total cells	16.09 ± 1.9	42.3 ± 1.4 /5 cm^2	7 ± 0.5							
394 ± 12.9	O=C(/C=C/c1ccc(O)cc1)c1ccccc1O [C2, 3-(4-Hydroxy-phenyl)-1-(2-hydroxy-phenyl)-propenone]	40 ± 2.5	18	36.60 % of total cells		60.0 ± 1.1 /5 cm^2		< 500	19.5	88.3	81.4	< 200		
929 ± 56.6	O=C(O)c1ccc(C=CC(=O)c2ccccc2O)cc1 [C3, 4-[3-(2-Hydroxy-phenyl)-3-oxo-propenyl]-benzoic acid]	38.7 ± 0.94		31.80 % of total cells		73.6 ± 0.8 /5 cm^2				178	117	< 200	12	
160 ± 15.5	CN(C)c1ccc(/C=C/C(=O)c2ccc(O)cc2O)cc1 [C5]							< 500						
826 ± 58.1	O=C(O)c1ccc(C=CC(=O)c2c(O)cccc2O)cc1 [C6, 4-[3-(2,6-Dihydroxy-phenyl)-3-oxo-propenyl]-benzoic acid]									> 500	> 500			
3.6 ± 0.2	O=C(CCCCCCC(=O)Nc1ccccc1)NO [SAHA, reference compound]													

Compound	IC50 [4, 8] [µM]	% apoptotic cells (AO/EB staining) [1] [%]	Early Apop. (Annexin V) [2] [%]	Total apoptotic cells (Annexin V) [2]	TNF-α level in colon homogenate [3]	No. of ACF/5 cm^2 [3]	No. of adenocarcinoma [3]	IC50 [4, 9] [µM]	Cells in G2/M phase (M3) [5] [%]	IC50 [6] [µM]	IC50 [7, 10] [µM]	IC50 [7, 11] [µM]	Cells in S phase (M2) ([5]; normal control 9.5 %) [%]	IC50 ([7]; HCT-116, 48 h, 48 h exposure, read-out: IC50 Value HCT116) [µM]
Cc1ccc(/C=C/C(=O)c2ccccc2O)cc1 [C1, 1-(2-Hydroxy-phenyl)-3-p-tolyl-propenone]	105	42.4 ± 2.25	5.85	37.70 % of total cells	6.18 ± 2.5	54.0 ± 0.5 /5 cm^2	10 ± 0.8	< 500	25	26.3				
CN(C)c1ccc(/C=C/C(=O)c2ccccc2O)cc1 [C4, 3-(4-Dimethylamino-phenyl)-1-(2-hydroxy-phenyl)-propenone]	470 ± 11							< 500		> 500				> 500
